In patent US12624068B2, “Exon skipping by peptide nucleic acid derivatives” (OliPass Corporation, priority 2016, dated 2026):
[C(1O2)] = modified PNA monomer acting as cytosine, C(pOq) type, 1O2; [A(5)] = modified PNA monomer acting as adenine, A(p) type, p=5; {Fmoc} = N-terminal Fmoc cap; {NH2} = C-terminal amide

Experiments:
[1] = tested on: complementary 10-mer RNA; assay: Tm of 10-mer model PNA with complementary 10-mer RNA; format: binding; details: for Tm: 4 μM PNA and 4 μM complementary 10-mer RNA, aqueous buffer pH 7.16, uncorrected; for ΔTm (Tm value - Tm value of PNA 10-1): complementary 10-mer RNA
Description: (§1) The 10-mer PNA oligomers in Table 12 were evaluated for their binding affinity for the complementary 10-mer RNA or DNA by measuring Tm values as described below.
(§2) A mixed solution of 4 μM 10-mer PNA oligomer and 4 μM complementary 10-mer DNA or RNA in 4 mL aqueous buffer (pH 7.16, 10 mM sodium phosphate, 100 mM NaCl) in 15 mL polypropylene falcon tube was incubated at 90° C. for a minute and slowly cooled down to ambient temperature. Then the solution was transferred into a 4 mL quartz UV cuvette, and subjected to Tm measurement at 260 nm on a UV/Visible spectrophotometer as described in the prior art [PCT/KR2009/001256] or with minor modifications. The DNA and RNA for Tm measurement were purchased from Bioneer (www.bioneer.com, Dajeon, Republic of Korea) and used without further purification.

[2] = tested on: complementary 10-mer DNA; assay: Tm of 10-mer model PNA with complementary 10-mer DNA; format: binding; details: for Tm: 4 μM PNA and 4 μM complementary 10-mer DNA, aqueous buffer pH 7.16, uncorrected; for ΔTm (Tm value - Tm value of PNA 10-1): complementary 10-mer DNA
Description: as §1, §2

[3] = tested on: rats with diabetes-induced peripheral neuropathic pain (DPNP); assay: Reversal of allodynia (von Frey) in rats with diabetes-induced peripheral neuropathic pain; format: in vivo, rat; details: 100 pmole/Kg subcutaneous in Days 11, 13, 15, 17 and 19
Description: “SCN-ASO 7”, “SCN-ASO 8”, “SCN-ASO 21”, “SCN-ASO 35”, “SCN-ASO 36” and “SCN-ASO 37” were evaluated for their ability to reverse the allodynia in rats with diabetes-induced peripheral neuropathic pain (DPNP). In this example, the six SCN9A ASOs targeting a total of five splice sites were evaluated for their ability to reverse the allodynia induced by diabetic neuropathy in rats.
[Induction of DPNP and Grouping] Diabetes was induced in rats by an intraperitoneal injection of streptozotocin at 60 mg/Kg in Day 0. In Day 10, rats with DPNP were randomly assigned to […] of negative control (vehicle only), “SCN-ASO 7” 100 pmole/Kg, “SCN-ASO 8” 100 pmole/Kg, “SCN-ASO 21” 100 pmole/Kg, “SCN-ASO 35” 100 pmole/Kg, “SCN-ASO 36” 100 pmole/Kg, and “SCN-ASO 37” 100 pmole/Kg. The animals were grouped based on the von Frey scores of individual animals in Day 10. (N=8-9 per group) Allodynia was scored using a set of microfilaments (Touch Test®) according to the “Up & Down” method. [J Neurosci. Methods vol 53(1), 55-63 (1994)]
[ASO Treatment and von Frey Scoring] ASO solutions for injection were prepared by serially diluting aqueous mother stock solutions of the SCN9A ASOs to 100 nM in PBS (phosphate buffered saline). Animals were subcutaneously administered with ASO at 1 mL/Kg in Days 11, 13, 15, 17 and 19. Von Frey scoring was carried out 2 hours post dose in Days 11, 13, 15, 17 and 19. Von Frey scoring was additionally performed in Days 21 and 23 in order to assess the duration of the therapeutic activity after the final dosing. Daily von Frey scores were evaluated for statistical significance by student's t-test against the negative control group (vehicle only, i.e., PBS).

[4] = tested on: 10-mer complementary DNA; assay: Tm between PNA derivatives and 10-mer complementary DNA (N- or C-terminal); format: binding; details: uncorrected
Description: as §2
PNA derivatives of Formula I were evaluated for their binding affinity for 10-mer DNAs complementarily targeting either the N-terminal or C-terminal. The binding affinity was assessed by the Tm value for the duplex between PNA and 10-mer complementary DNA. The duplex between PNA derivatives and DNAs of full complementarity usually show Tm values too high to be reliably determined in aqueous buffer solution. The aqueous buffer solution tends to boil off during Tm measurement.

[5] = tested on: SCN9A mRNA; assay: SCN9A nested qPCR by SYBR Green in PC3 cells; format: cell-based, human; details: PC3 cells, 24 hours
Description: “SCN-ASO 7” was evaluated for its ability to inhibit the expression of the human SCN9A mRNA in PC3 cells by qPCR against a set of exon-specific primers as follows. [Cell Culture & ASO Treatment] PC3 cells grown in 60 mm culture dish containing 5 mL culture medium were incubated with “SCN-ASO 7” for 24 hours at 0 (negative control), 10, 100 or 1,000 zM. (2 culture dishes per concentration) [RNA Extraction] […] [cDNA Synthesis by One Step RT-PCR] […] NO: 78); and SCN-exon 9_reverse: (5'→3') […] NO: 79)]. […] [Nested qPCR Amplification] […] NO: 80); SCN-exon 4_reverse: (5'→3') […] NO: 81); SCN-exon 5_forward: (5'→3') […] NO: 82); SCN-exon 5_reverse: (5'→3') […] NO: 83); SCN-exon 6_forward: (5'→3') […] NO: 84); SCN-exon 6_reverse: (5'→3') […] NO: 85)]. The PCR reactions were probed with SYBR Green (Takara, Japan). […] “SCN-ASO 3” was evaluated for its ability to inhibit the expression of the full-length SCN9A mRNA in PC3 cells according to the protocol described in “SCN9A Example 2”, unless noted otherwise. “SCN-ASO 8” was evaluated for its ability to inhibit the expression of the full-length SCN9A mRNA in PC3 cells according to the protocol described in “SCN9A Example 2”, unless noted otherwise.

[6] = tested on: sodium current in PC3 cells; assay: CoroNa assay of sodium current in PC3 cells; format: cell-based, human; details: 30 hours
Description: Cellular sodium current is measured by patch clamp. As sodium ions enter cell, the intra-cellular sodium ion level increases. The intra-cellular sodium level can be probed using a sodium ion sensitive dye. “CoroNa Green” is a dye with a sodium ion chelator of crown ether type. Upon chelation with a sodium ion, “CoroNa Green” emits green fluorescence. “CoroNa Green” has been used to indirectly measure the intra-cellular sodium level. […] [Proc. Natl. Acad. Sci. USA vol 106(38), 16145-16150 (2009)]
PC3 cells are known to abundantly express the human SCN9A mRNA, although there are other SCN subtypes concomitantly expressed. [Br J. Pharmacol. vol 156, 420-431 (2009)] Thus an inhibition of SCN9A mRNA expression may lead to a considerable reduction of the sodium current in PC3 cells, if the sodium ion current by the Nav1.7 sodium channel subtype occupies a marked portion of the total sodium ion current in PC3 cells. It is note that the SCN9A mRNA encodes the Nav1.7 sodium channel subtype.
“SCN-ASO 7” was evaluated for its ability to inhibit the sodium ion current in PC3 cells using “CoroNa Green” as follows.
[ASO Treatment] PC3 cells grown in 35 mm culture dish containing 2 mL F-12K medium were treated with “SCN-ASO 7” at 0 zM (negative control), 100 zM or 1 aM.
[CoroNa Assay] 30 hours later, the cells were washed with 2 mL HBSS (Hank's Balanced Salt Solution, Cat. Number 14025-092, Life Technologies), and then charged with 2 mL fresh HBSS. Then the cells were treated with 5 μM “CoroNa Green” (Cat. Number C36676, Life Technologies) at 37° C. 30 min later, the cells were washed 2× with 2 mL HBSS, and charged with 2 mL fresh HBSS. The culture dish was mounted on an Olympus fluorescence microscope equipped with a digital video camera to continuously capture the green fluorescence images of the cells. The cells were acutely treated with 100 mM NaCl, and then the changes in fluorescence cellular images were digitally recorded over a period of 3 min. There were about 4 cells per frame on average. The fluorescence intensities from each individual cell were traced at the resolution of a second. The traces of the intracellular fluorescence intensities from individual cells were overlaid and averaged at each time point. The average of the traces from the individual cells of each ASO concentration were plotted as provided in FIG. 30A using ImageJ program (version 1.50i, NIH). The average fluorescence intensity trace was taken as the individual intra-cellular sodium concentration trace for the cells treated with “SCN-ASO 7” at 0 (negative control), 100 or 1,000 zM.
“SCN-ASO 3” was evaluated for its ability to inhibit the sodium current in PC3 cells using “CoroNa Green” according to the protocol described in “SCN9A Example 5”, unless noted otherwise.
“SCN-ASO 8” was evaluated for its ability to inhibit the sodium current in PC3 cells using “CoroNa Green” according to the protocol described in “SCN9A Example 3”, unless noted otherwise.

Substance | Tm [1] | ΔTm (Tm value - Tm value of PNA 10-1) [1] | Tm [2] | ΔTm (Tm value - Tm value of PNA 10-1) [2] | maximum therapeutic efficacy based on the von Frey scores in Day 19 [3] | Tm Value, 10-mer DNA against C-Terminal [4] | Tm Value, 10-mer DNA against N-Terminal [4] | decrease of expression levels of SCN9A exons 4-6 (SYBR Green) ([5]; 10 zM) | decrease of expression levels of SCN9A exons 4-6 (SYBR Green) ([5]; 100 zM) | decrease of sodium current (CoroNa) ([6]; PC3 cells, 100 zM) | decrease of sodium current / sodium channel activity (CoroNa) ([6]; PC3 cells, 1,000 zM) | average cellular fluorescence intensity (CoroNa Green) ([6]; PC3 cells, 1,000 zM, at 100 sec after 100 mM NaCl)
Fmoc-GTA(5)-GA(5)T-C(1O2)AC-T-NH2 (GTAGATCACT; all peptide nucleic acid (PNA), [A(5)] at 3, 5, [C(1O2)] at 7, 5' {Fmoc}, 3' {NH2}; model 10-mer peptide nucleic acid written N to C) [PNA 10-7] | 69 °C | +18 °C | 69 °C | +18 °C | – | – | – | – | – | – | – | –
Fmoc-GTA(5)-GA(5)T-CA(5)C-T-NH2 (GTAGATCACT; all peptide nucleic acid (PNA), [A(5)] at 3, 5, 8, 5' {Fmoc}, 3' {NH2}; model 10-mer peptide nucleic acid written N to C) [PNA 10-4] | 66 °C | +11 °C | 66 °C | +15 °C | – | – | – | – | – | – | – | –
Fmoc-GTA-GAT-CAC-T-NH2 (GTAGATCACT; all peptide nucleic acid (PNA), 5' {Fmoc}, 3' {NH2}; model 10-mer peptide nucleic acid written N to C) [PNA 10-1, reference compound] | 55 °C | – | 51 °C | – | – | – | – | – | – | – | – | –
Fmoc-TA(5)A-A(5)TA(5)-CGC(1O2)-AA(5)A-A(5)AC-A(5)A-NH2 (TAAATACGCAAAAACAA; chemistry not fully specified) [SCN-ASO 8] | – | – | – | – | 61% | 68.6 °C | 74.0 °C | 50-70% | 70-80% | 30% | 31% | 89.7 arbitrary unit
